Source: patent US4327097A, “Novel penicillins” (Toyama Chemical Co., Ltd., priority 1974, dated 1982)
In brackets after ≈: the same amount, converted by molar mass.

Columns and labels:
[1] = test system: Pseudomonas aeruginosa; test: MIC against clinical isolates; format: cell-based; settings: unit assumed
[2] = test system: β-lactamase, Pseudomonas aeruginosa GN 238; test: Resistant activity against β-lactamase, iodometric assay; format: biochemical; settings: β-lactamase from Pseudomonas aeruginosa GN 238; Potassium Penicillin G = 100
Experimental: (3) Resistant activity against β-lactamase, Pseudomonas aerugionsa GN 238:
The resistant activity of each compound against β-lactamase was measured in the manner described below.
β-Lactamase was prepared from Pseudomonas aeruginosa GN 238. This microorganism was cultured in 100 ml of a medium containing 2 g of yeast extract, 10 g of polypeptone, 2 g of glucose, 7 g of disodium hydrogen phosphate, 2 g of potassium dihydrogen phosphate, 1.2 g of ammonium sulfate and 0.4 g of magnesium sulfate, per liter, in a 500-ml Erlenmeyer flask for 6 hrs. at 37° C. with shaking. The resulting cells were collected by centrifugation (5,000 r.p.m.×10 min.), washed three times with 0.1 M phosphate buffer (pH 7.0). Subsequently, the cells were subjected to sonication (20 KHz, 20 min.) and then centrifuged at 15,000 r.p.m. for 60 min. By using the supernatant of enzyme fluid, the resistance of each compound against β-lactamase was determined by the iodometric assay method. Each numeral shown in Table 7 is a relative activity value calculated by assuming as 100 the activity of the control Potassium Penicillin G.

[3] = test system: Klebsiella pneumoniae; test: MIC, plate method, standard strains; format: cell-based; settings: Table 3, standard strain; unit assumed
In short: (§1)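 Heart infusion agar, pH 7.4, plate method. Inoculum: 10^4 cells/plate (10^6 cells/ml). Read-out: MIC.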

[4] = test system: Proteus vulgaris 3027; test: MIC, plate method, standard strains; format: cell-based; settings: Table 3, standard strain; unit assumed
In short: as §1

[5] = test system: Staphylococcus aureus 209p; test: MIC, plate method, standard strains; format: cell-based; settings: Table 3, standard strain, Heart infusion agar pH 7.4; unit assumed
In short: as §1

[6] = test system: Escherichia coli NIHJ; test: MIC, plate method, standard strains; format: cell-based; settings: Table 3, standard strain; unit assumed
In short: as §1

[7] = test system: Shigella flexneri; test: MIC against clinical isolates; format: cell-based; settings: Table 5-5, clinical isolate; unit assumed
Experimental: (§2) The minimum inhibitory concentration (MIC) was determined by the plate method disclosed in "Chemotherapy" (Japan), Vol. 16, (1968), pages 98-99. The culture medium used was a Heart infusion agar (pH 7.4). The number of the cells per plate used in the inoculum was 10^4 (10^6 cells/ml).
(§3) MIC was determined in the same manner as in the preceding paragraph (1).

[8] = test system: Shigella sonnei; test: MIC against clinical isolates; format: cell-based; settings: Table 5-5, clinical isolate; unit assumed
Experimental: as §2, §3

[9] = test system: Proteus morganii; test: MIC against clinical isolates; format: cell-based; settings: Table 5-6, clinical isolate; unit assumed
[10] = test system: Escherichia coli; test: MIC against clinical isolates; format: cell-based; settings: Table 5-2, clinical isolate; unit assumed
[11] = test system: Salmonella typhi-murium; test: MIC against clinical isolates; format: cell-based; settings: Table 5-5, clinical isolate; unit assumed
[12] = test system: Proteus vulgaris; test: MIC against clinical isolates; format: cell-based; settings: Table 5-6, clinical isolate; unit assumed
[13] = test system: Staphylococcus aureus; test: MIC against clinical isolates; format: cell-based; settings: Table 5-1, clinical isolate; unit assumed
[14] = test system: Proteus mirabilis; test: MIC against clinical isolates; format: cell-based; settings: Table 5-6, clinical isolate; unit assumed
[15] = test system: Klebsiella pneumoniae; test: MIC against clinical isolates; format: cell-based; settings: Table 5-4, clinical isolate; unit assumed
[16] = test system: Pseudomonas aeruginosa I.F.O.; test: MIC, plate method, standard strains; format: cell-based; settings: Table 3, standard strain; unit assumed
In short: as §1

CCCN1CCN(C(=O)NC(C(=O)NC2C(=O)N3C2SC(C)(C)C3C(=O)O)c2ccccc2)C(=O)C1=O (single isomer, unassigned) [Compound 38]
MIC Pseudomonas aeruginosa GN 82 ([1]; Table 5-3, clinical isolate): 3.13 µg/mL (≈ 5.89 µM)
MIC Pseudomonas aeruginosa GN 163 ([1]; Table 5-3, clinical isolate): 3.13 µg/mL (≈ 5.89 µM)
MIC Pseudomonas aeruginosa GN 376 ([1]; Table 5-3, clinical isolate): 3.13 µg/mL (≈ 5.89 µM)
MIC Pseudomonas aeruginosa GN 1091 ([1]; Table 5-3, clinical isolate): 3.13 µg/mL (≈ 5.89 µM)
Relative activity (%), resistant activity against β-lactamase [2]: 15%
MIC Klebsiella pneumoniae [3]: 3.13 µg/mL (≈ 5.89 µM)
MIC Proteus vulgaris 3027 [4]: 0.4 µg/mL (≈ 0.752 µM)
MIC Staphylococcus aureus 209p [5]: 0.4 µg/mL (≈ 0.752 µM)
MIC Esche--richin coil NIHJ [6]: < 0.1 µg/mL
MIC Shigella flexneri JS 11215 [7]: 25 µg/mL (≈ 47 µM)
MIC Shigella flexneri JS 11839 [7]: 1.57 µg/mL (≈ 2.95 µM)
MIC Shigella sonnei JS 11232 [8]: 50 µg/mL (≈ 94.1 µM)
MIC Shigella sonnei JS 11755 [8]: 3.13 µg/mL (≈ 5.89 µM)
MIC Proteus morganii [9]: < 0.4 µg/mL
MIC Escherichia coli GN 3452 [10]: 3.13 µg/mL (≈ 5.89 µM)
MIC Escherichia coli GN 3465 [10]: 50 µg/mL (≈ 94.1 µM)
MIC Escherichia coli GN 3481 [10]: 3.13 µg/mL (≈ 5.89 µM)
MIC Escherichia coli GN 3611 [10]: > 200 µg/mL
MIC Escherichia coli K-1 [10]: 3.13 µg/mL (≈ 5.89 µM)
MIC Escherichia coli K-2 [10]: 3.13 µg/mL (≈ 5.89 µM)
MIC Escherichia coli K-3 [10]: > 200 µg/mL
MIC Salmonella typhi-murium SL 2136 [11]: 200 µg/mL (≈ 376 µM)
MIC Proteus vulgaris [12]: < 0.4 µg/mL
MIC Staphylococcus aureus F-2 [13]: 1.57 µg/mL (≈ 2.95 µM)
MIC Staphylococcus aureus F-5 [13]: > 200 µg/mL
MIC Staphylococcus aureus MS 8588 [13]: 3.13 µg/mL (≈ 5.89 µM)
MIC Staphylococcus aureus MS 8596 [13]: 3.13 µg/mL (≈ 5.89 µM)
MIC Staphylococcus aureus MS 8684 [13]: 3.13 µg/mL (≈ 5.89 µM)
MIC Proteus mirabilis [14]: < 0.4 µg/mL
MIC Klebsiella pneumoniae GN 917 [15]: 3.13 µg/mL (≈ 5.89 µM)
MIC Klebsiella pneumoniae GN 4081 [15]: 50 µg/mL (≈ 94.1 µM)
MIC Klebsiella pneumoniae GN 4117 [15]: 50 µg/mL (≈ 94.1 µM)

CN1CCN(C(=O)NC(C(=O)NC2C(=O)N3C2SC(C)(C)C3C(=O)O)c2ccccc2)C(=O)C1=O (single isomer, unassigned) [Compound 37]
MIC Pseudomonas aeruginosa GN ([1]; Table 5-3, clinical isolate, strain number not given): 50 µg/mL (≈ 99.3 µM)
MIC Pseudomonas aeruginosa GN 82 ([1]; Table 5-3, clinical isolate): 6.25 µg/mL (≈ 12.4 µM)
MIC Pseudomonas aeruginosa GN 163 ([1]; Table 5-3, clinical isolate): 12.5 µg/mL (≈ 24.8 µM)
MIC Pseudomonas aeruginosa GN 221 ([1]; Table 5-3, clinical isolate): 6.25 µg/mL (≈ 12.4 µM)
MIC Pseudomonas aeruginosa GN 376 ([1]; Table 5-3, clinical isolate): 12.5 µg/mL (≈ 24.8 µM)
MIC Pseudomonas aeruginosa GN 1035 ([1]; Table 5-3, clinical isolate): 50 µg/mL (≈ 99.3 µM)
MIC Pseudomonas aeruginosa GN 1091 ([1]; Table 5-3, clinical isolate): 12.5 µg/mL (≈ 24.8 µM)
MIC Pseudomonas neruginosa S-1 ([1]; Table 5-4, clinical isolate): 200 µg/mL (≈ 397 µM)
MIC Pseudomonas neruginosa S-3 ([1]; Table 5-4, clinical isolate): 50 µg/mL (≈ 99.3 µM)
MIC Pseudomonas neruginosa S-4 ([1]; Table 5-4, clinical isolate): 100 µg/mL (≈ 199 µM)
Relative activity (%), resistant activity against β-lactamase [2]: 15%
MIC Klebsiella pneumoniae [3]: 6.25 µg/mL (≈ 12.4 µM)
MIC Proteus vulgaris 3027 [4]: < 1.57 µg/mL
MIC Staphylococcus aureus 209p [5]: < 1.57 µg/mL
MIC Pseudomonas aeruginosa I.F.C [16]: 6.25 µg/mL (≈ 12.4 µM)
MIC Esche--richin coil NIHJ [6]: < 1.57 µg/mL
MIC Shigella flexneri JS 11215 [7]: > 200 µg/mL
MIC Shigella flexneri JS 11839 [7]: 6.25 µg/mL (≈ 12.4 µM)
MIC Shigella sonnei JS 11232 [8]: 100 µg/mL (≈ 199 µM)
MIC Shigella sonnei JS 11755 [8]: 6.25 µg/mL (≈ 12.4 µM)
MIC Escherichia coli GN 3435 [10]: 3.13 µg/mL (≈ 6.22 µM)
MIC Escherichia coli GN 3452 [10]: 12.5 µg/mL (≈ 24.8 µM)
MIC Escherichia coli GN 3465 [10]: 200 µg/mL (≈ 397 µM)
MIC Escherichia coli GN 3481 [10]: 6.25 µg/mL (≈ 12.4 µM)
MIC Escherichia coli GN 3611 [10]: > 200 µg/mL
MIC Escherichia coli K-1 [10]: 12.5 µg/mL (≈ 24.8 µM)
MIC Escherichia coli K-2 [10]: 6.25 µg/mL (≈ 12.4 µM)
MIC Escherichia coli K-3 [10]: > 200 µg/mL
MIC Escherichia coli K-4 [10]: 3.13 µg/mL (≈ 6.22 µM)
MIC Salmonella typhi-murium SL 2136 [11]: > 200 µg/mL
MIC Proteus vulgaris [12]: < 0.4 µg/mL
MIC Staphylococcus aureus F-1 [13]: 12.5 µg/mL (≈ 24.8 µM)
MIC Staphylococcus aureus F-3 [13]: 3.13 µg/mL (≈ 6.22 µM)
MIC Staphylococcus aureus F-4 [13]: 6.25 µg/mL (≈ 12.4 µM)
MIC Staphylococcus aureus F-5 [13]: > 200 µg/mL
MIC Staphylococcus aureus MS 8588 [13]: 3.13 µg/mL (≈ 6.22 µM)
MIC Staphylococcus aureus MS 8596 [13]: 3.13 µg/mL (≈ 6.22 µM)
MIC Staphylococcus aureus MS 8684 [13]: 3.13 µg/mL (≈ 6.22 µM)
MIC Staphylococcus aureus MS 8713 [13]: 12.5 µg/mL (≈ 24.8 µM)
MIC Klebsiella pneumoniae GN 917 [15]: 12.5 µg/mL (≈ 24.8 µM)
MIC Klebsiella pneumoniae GN 4081 [15]: 200 µg/mL (≈ 397 µM)
MIC Klebsiella pneumoniae GN 4117 [15]: 100 µg/mL (≈ 199 µM)
